Values belong to the compound of their own block, whether it stands above or below them.
What was measured:
[1] = cited from earlier work
[2] = cited from earlier work; remark: listed apart in the source
[3] = Everolimus single-dose pharmacokinetics; type: in vivo, patients; conditions: for AUCinf % extrapolated: single dose everolimus 30 mg
metastatic RCC [4] = conditions: metastatic RCC previously treated with VEGFR tyrosine kinase inhibitor; ref [6]; cited from earlier work
[5] = human, in vivo, 30 mg
metastatic RCC [6] = conditions: front line metastatic RCC setting; ref [1],[2]; cited from earlier work
[7] = Sunitinib multiple-dose pharmacokinetics; type: in vivo, patients; conditions: for AUC / CL/F / Cmax / half-life: human, oral; for AUC / CL/F / Cmax / half-life / Cmin / Tmin: plasma, multiple dose (dose 14), sunitinib 50 mg daily with everolimus 30 mg weekly; for AUC: AUCtau, dosing interval 24 hours; for CL/F: dose/AUCtau

- Tmax ([3]; human, plasma, po): 2 h
- AUC(0-inf) ([3]; human, plasma, po, AUCinf, subject 1002, after first oral dose of everolimus 30 mg, with sunitinib 50 mg daily, plasma): 1560 ng·h/mL
- CL/F ([3]; human, plasma, po, CL/F, subject 1002, after first oral dose of everolimus 30 mg, with sunitinib 50 mg daily, plasma): 3.34 mL/min/kg
- Cmax ([3]; human, plasma, po, Cmax, subject 1002, after first oral dose of everolimus 30 mg, with sunitinib 50 mg daily, plasma): 82.3 ng/mL
- half-life ([3]; human, plasma, po, t1/2, subject 1002, after first oral dose of everolimus 30 mg, with sunitinib 50 mg daily, plasma): 25.7 h
- AUCinf % extrapolated ([3]; subject 1002): 48.7%
- AUCinf % extrapolated ([3]; subject 1003): 35.2%
- AUCtau relative to AUCinf after the first dose [5]: almost double
SMILES: CO[C@H]1C[C@@H]2CC[C@@H](C)[C@@](O)(O2)C(=O)C(=O)N2CCCC[C@H]2C(=O)O[C@H]([C@H](C)C[C@@H]2CC[C@@H](OCCO)[C@H](OC)C2)CC(=O)[C@H](C)/C=C(\C)[C@@H](O)[C@@H](OC)C(=O)[C@H](C)C[C@H](C)/C=C/C=C/C=C/1C [Everolimus]
- eliminated in bile [1]: 98%
- bioavailability [2]: 16%
- progression-free survival (PFS) over placebo (metastatic RCC [4]): significant improvement

- AUC ([7]; subject 1001): 1860 ng·h/mL
- AUC ([7]; subject 1002): 2770 ng·h/mL
- AUC ([7]; subject 1003): 2300 ng·h/mL
- CL/F ([7]; subject 1001): 7.13 mL/min/kg
- CL/F ([7]; subject 1002): 3.12 mL/min/kg
- CL/F ([7]; subject 1003): 5.34 mL/min/kg
- Cmax ([7]; subject 1001): 83.1 ng/mL
- Cmax ([7]; subject 1002): 142 ng/mL
- Cmax ([7]; subject 1003): 106 ng/mL
- half-life ([7]; t1/2, subject 1002): 33 h
- half-life ([7]; t1/2, subject 1003): 85.5 h
- AUCtau compared with sunitinib monotherapy ([7]; same dose of sunitinib (50 mg/d), compared with Faivre, et al): substantially higher
- Cmin ([7]; subject 1001): 59.4 ng/mL
- Tmin ([7]; subject 1001): 2 h
- Cmin ([7]; subject 1002): 80.3 ng/mL
- Tmin ([7]; subject 1002): 0 h
SMILES: CCN(CC)CCNC(=O)c1c(C)[nH]c(/C=C2\C(=O)Nc3ccc(F)cc32)c1C [Sunitinib, Sunitinib malate]
- progression free survival (PFS) (metastatic RCC [6]): less than a year

SMILES: Cc1ccc(Nc2nccc(N(C)c3ccc4c(C)n(C)nc4c3)n2)cc1S(N)(=O)=O [pazopanib]
- progression free survival (PFS) (metastatic RCC [6]): less than a year
